Results as given in PMC9738062, “Selectively Halogenated Flavonolignans—Preparation and Antibacterial Activity” (International Journal of Molecular Sciences, 2022).

How the values were obtained:
[1] = tested on: Vibrio campbellii BAA 1118 (AI-1); test: microbe, parasite or virus in culture; assay type: cell-based; conditions: for EC50: Vibrio campbellii, BAA1118, 16 h, read-out: EC50 (concentration that halved the communication); for SI (selectivity index): ratio IC50 (viability) / EC50 (communication), BAA 1118
Source text: (§1) Commercially available strains of Vibrio campbellii were used to evaluate the ability of flavonoids and their derivatives to inhibit bacterial quorum sensing. V. campbellii uses two types of autoinducing molecules for its communication—N-acyl-homoserine lactones (Autoinducer I, AI-1, strain BAA 1118) and furanosyl borate diester (Autoinducer II, AI-2, strain BAA 1119). AI-1-based communication is mainly used by Gram-negative bacteria, while AI-2-based communication is found in both Gram-negative and Gram-positive bacteria. The mutant strains of V. campbellii BA1118 and BA1119 respond only to AI-1 or AI-2, respectively, and the response to the respective AI concentration is measured as luminescence. The higher the AI concentration, the higher the luminescence signal. The ability to inhibit the communication was expressed as the selectivity index (SI), calculated as the ratio between the concentration that halved the viability (IC50) and the concentration that halved the communication (EC50) of the respective V. campbellii strains. […] The antimicrobial activity of quorum-sensing inhibitors is undesirable because it creates a selection pressure and can lead to the development of resistance.
(§2) The inhibition of bacterial extracellular communication was measured using Vibrio campbellii strains BAA-1118 and BAA-1119. The experiment was performed according to the methods of Szemerédi et al.. Briefly, 5 × 10^5 CFU/mL (colony-forming units per milliliter) were seeded in an Autoinducer Bioassay medium (NaCl 17.5 g/L, MgSO4 12.3 g/L, Casamino acids 2 g/L, 10 mL of 1 M potassium phosphate pH 7.0, 10 mL of 0.1 M L-arginine, and 10 mL of glycerol in 970 mL of deionized water) in a 96-well plate. Immediately, the tested compounds were added at the final concentration of 0.2–200 µM and luminescence was recorded for 16 h by a SpectraMax i3x microplate reader set at 30 °C, an integration time of 10,000 ms, and shaking for 60 s before measurement. […] The selectivity index was calculated as the […]. The EC50 and IC50 were calculated using GraphPad Prism software version 5.00 for Windows with a nonlinear regression curve fit.

[2] = tested on: Vibrio campbellii BAA 1119 (AI-2); test: microbe, parasite or virus in culture; assay type: cell-based; conditions: for EC50: Vibrio campbellii, BAA1119, 16 h, read-out: EC50 (concentration that halved the communication); for SI (selectivity index): ratio IC50 (viability) / EC50 (communication), BAA 1119
Source text: as §1, §2

[3] = tested on: Vibrio campbellii BAA 1118 (AI-1); test: Viability of the quorum-sensing reporter culture (resazurin assay), AI-1 strain; assay type: cell-based; conditions: BAA1118, V. campbellii BAA 1118, resazurin assay, read-out: IC50 (concentration that halved the viability)
Source text: as §1, §2

[4] = tested on: multidrug-resistant P. aeruginosa; test: Sensitization of antibiotic-resistant bacteria (compound plus breakpoint antibiotic concentration); assay type: cell-based, Pseudomonas aeruginosa; conditions: flavonoid 40 µM, 24 h; for Effect on viability in combination with colistin: colistin 2 mg/L; for Effect on viability in combination with imipenem: imipenem 4 mg/L; as to Effect on viability in combination with imipenem: key: -: no effect (100% viability) was observed up to the highest flavonolignan concentration tested (>40 µM); reversion of resistance: the compound reversed the resistant phenotype to a sensitive one
Experimental: (§3) Clinically relevant antibiotics were selected for sensitization testing according to the European Committee on Antimicrobial Susceptibility Testing (EUCAST). Neither colistin and imipenem at breakpoint concentrations (according to EUCAST, […] and […]) affected the growth of the multidrug-resistant clinical strain of P. aeruginosa. Similarly, neither chloramphenicol and gentamicin at breakpoint concentrations ([…], respectively) affected the multidrug-resistant clinical strain of S. aureus. Flavonoids and their derivatives (1–40 µM) were used in combination therapy, along with the breakpoint concentration of antibiotics. After co-incubation, the minimum inhibitory concentration of flavonoids inhibiting the visible growth of bacteria was determined (Table 2).
(§4) Clinical isolates of P. aeruginosa and S. aureus were obtained from the General University Hospital in Prague (Prague, Czech Republic). P. aeruginosa was resistant to ciprofloxacin, oxacillin, ticarcillin, colistin, gentamicin, and imipenem. S. aureus was resistant to ciprofloxacin, gentamicin, erythromycin, chloramphenicol, clindamycin, oxacillin, cefotaxime, and vancomycin. Bacteria were cultivated in Mueller–Hinton broth (MH broth, Merck). The susceptibility of the bacteria was evaluated by the minimum inhibitory concentrations (MIC). The MIC of derivatives in the presence of the antibiotic cut-off concentration was determined according to ISO 20776-1: 2020. The antibiotic cut-off concentration was chosen according to the European Committee on Antimicrobial Susceptibility Testing (EUCAST, Clinical breakpoints—bacteria (ver. 11.0), 1 January 2021). The 40 µM concentration of the derivatives was chosen as the highest concentration for the tests. Cell viability was determined by measuring absorbance (A590 nm) after 24 h incubation at 37 °C, 150 rpm.

[5] = tested on: multidrug-resistant S. aureus; test: as above; assay type: cell-based, Staphylococcus aureus; conditions: chloramphenicol 8 mg/L, flavonoid 40 µM, 24 h
Experimental: as §3, §4

[6] = ABTS cation radical scavenging; conditions: vitamin C equivalent antioxidant capacity
Experimental: (§5) To further elucidate how halogenation affects other properties of the flavonoids studied, their 2,2′-azino-bis-(3-ethylbenzothiazoline-6-sulfonic acid) cation (ABTS) and 1,1-diphenyl-2-picrylhydrazyl (DPPH) radical scavenging, the Folin–Ciocalteu reagent (FCR) reducing, the ferric-reducing antioxidant power (FRAP), and the anti-lipoperoxidation activities were evaluated by in vitro methods (Supplementary Information Tables S1 and S2).
(§6) The antiradical activity was evaluated by the ability to scavenge ABTS and DPPH radicals. Reducing capacity was assessed by the ability to reduce the Folin–Ciocalteu reagent (FCR) and ferric ions (FRAP). The ability to inhibit lipid peroxidation of pooled male rat microsomal liver membranes induced by tert-butyl hydroperoxide was also evaluated and the results were expressed as IC50 values.

[7] = Folin-Ciocalteu reagent reduction; conditions: gallic acid equivalents
Experimental: as §5, §6

[8] = Ferric reducing antioxidant power (FRAP); conditions: Fe2+ equivalents
Experimental: as §5, §6

DPPH radical scavenging = conditions: 1,1-diphenyl-2-picrylhydrazyl radical scavenging
Experimental: as §5, §6

[9] = tested on: doxorubicin-resistant human ovarian carcinoma (HOC/DOX); test: Cytotoxicity (resazurin assay, 72 h); assay type: cell-based; conditions: for IC50: Homo sapiens, 72 h, resazurin assay; for SI (selectivity index): ratio IC50 for HDF / IC50 for HOC/DOX
Experimental: (§7) The cytotoxicity of flavonoids and their halogenated derivatives was determined as their ability to decrease the viability of human dermal fibroblasts (HDF) and doxorubicin-resistant human ovarian carcinomas (HOC/DOX). Both cell lines were cultivated in Dulbecco’s Modified Eagle’s Medium supplemented with fetal bovine serum (FBS, 10% v/v) and 1 × antibiotic antimycotic solution and incubated at 37 °C in the atmosphere of 5% CO2. The experiment was performed according to a previously published method. Briefly, 1 × 10^5 cells/mL were seeded into a 96-well plate (100 µL/well). After 24 h, flavonoids and their derivatives were administered at the concentration range of 31.25–500 µM. After 72 h, the viability was determined by resazurin assay (0.03 mg/mL of resazurin in PBS), where the fluorescence was measured after 2 h of incubation by the SpectraMax i3x microplate reader at a wavelength of 560/590 nm (excitation/emission). The concentration inhibiting half of the population (IC50) was determined using nonlinear regression in GraphPad Prism software. The selectivity index was calculated as the ratio between the IC50 for HDF (control, non-cancerous cells) and the IC50 for HOC/DOX (cancer cells).

[10] = tested on: human dermal fibroblasts (HDF); test: Cytotoxicity (resazurin assay, 72 h); assay type: cell-based; conditions: Fibroblast
Experimental: as §7

[11] = tested on: lipopolysaccharide-stimulated macrophages (RAW 264.7); test: Inhibition of nitric oxide production (Griess reagent); assay type: cell-based, murine; conditions: Mus musculus, RAW264.7; LPS 100 ng/mL, 24 h; highest tested concentration 100 µM; read-out: NO Production IC50
Experimental: The anti-inflammatory activity of the tested flavonolignans was determined as the ability to reduce nitric oxide production by murine macrophages (RAW 264.7) stimulated by bacterial lipopolysaccharides, as previously described. […] For the experiment, 1 × 10^6 cells/mL was seeded into the 96-well plate (100 µL/well). […] After 24 h, the medium was mixed with Griess reagent (0.04 g/mL), prepared freshly in deionized water at the ratio of 1:1. The absorbance was measured after 15 min at 540 nm by the SpectraMax i3x microplate reader. Cell viability was determined by resazurin assay.

[12] = tested on: Vibrio campbellii BAA 1119 (AI-2); test: Viability of the quorum-sensing reporter culture (resazurin assay), AI-2 strain; assay type: cell-based; conditions: BAA1119, V. campbellii BAA 1119, resazurin assay, read-out: IC50 (concentration that halved the viability)
Source text: as §1, §2

| IC50 (DPPH radical scavenging) | SMILES | EC50 [1] | SI (selectivity index) [1] | EC50 [2] | SI (selectivity index) [2] | IC50 [3] | Effect on viability in combination with colistin [4] | Effect on viability in combination with imipenem [4] | Effect on viability in combination with chloramphenicol [5] | ABTS [CEAC] [6] | FCR [GAE] [7] | FRAP [Fe2+eq] [8] | IC50 [9] | SI (selectivity index) [9] | IC50 [10] | IC50 [11] | IC50 [12] |
| --- | --- | --- | --- | --- | --- | --- | --- | --- | --- | --- | --- | --- | --- | --- | --- | --- | --- |
| 97.1 µM | COc1cc([C@@H]2Oc3cc([C@H]4Oc5c(I)c(O)cc(O)c5C(=O)[C@@H]4O)ccc3O[C@H]2CO)ccc1O [compound 24, 8-iodosilybin B] |  |  |  |  |  |  |  |  | 0.47 ± 0.04 CEAC | 1.01 ± 0.02 GAE | 0.079 ± 0.002 Fe2+eq |  |  |  |  |  |
| > 500 µM | COc1cc([C@H]2Oc3cc([C@H]4Oc5c(I)c(O)c(I)c(O)c5C(=O)[C@@H]4O)ccc3O[C@@H]2CO)ccc1O [compound 25, 6,8-diiodosilybin A] |  |  |  |  |  |  |  |  | 0.41 ± 0.01 CEAC | 0.95 ± 0.01 GAE | 0.053 ± 0.003 Fe2+eq |  |  |  |  |  |
| 249 µM | COc1cc([C@@H]2Oc3cc([C@H]4Oc5c(I)c(O)c(I)c(O)c5C(=O)[C@@H]4O)ccc3O[C@H]2CO)ccc1O [compound 26, 6,8-diiodosilybin B] |  |  |  |  |  |  |  |  | 0.48 ± 0.01 CEAC | 0.84 ± 0.04 GAE | 0.048 ± 0.001 Fe2+eq |  |  |  |  |  |
|  | O=C(O)c1cc(O)c(O)c(O)c1 [gallic acid, reference compound] |  |  |  |  |  |  |  |  |  | 1.00 GAE |  |  |  |  |  |  |
|  | O=C1O[C@H]([C@@H](O)CO)C(O)=C1O [vitamin C, reference compound] |  |  |  |  |  |  |  |  | 1.01 CEAC |  |  |  |  |  |  |  |

| SMILES | IC50 (DPPH radical scavenging) | EC50 [1] | SI (selectivity index) [1] | EC50 [2] | SI (selectivity index) [2] | IC50 [3] | Effect on viability in combination with colistin [4] | Effect on viability in combination with imipenem [4] | Effect on viability in combination with chloramphenicol [5] | ABTS [CEAC] [6] | FCR [GAE] [7] | FRAP [Fe2+eq] [8] | IC50 [9] | SI (selectivity index) [9] | IC50 [10] | IC50 [11] | IC50 [12] |
| --- | --- | --- | --- | --- | --- | --- | --- | --- | --- | --- | --- | --- | --- | --- | --- | --- | --- |
| COc1cc([C@@H]2Oc3cc([C@H]4Oc5c(Br)c(O)cc(O)c5C(=O)[C@@H]4O)ccc3O[C@H]2CO)ccc1O [compound 20, 8-bromosilybin B] | > 500 µM | 44.2 ± 0.7 µM | 2.9 ± 0.1 | 4.7 ± 0.2 µM | ≥42.9 ± 2.1 | 127 ± 4 µM | - | - | - | 0.47 ± 0.01 CEAC | 1.10 ± 0.02 GAE | 0.056 ± 0.002 Fe2+eq | 227 µM | 0.43 | 97.9 ± 4.4 µM | 38 ± 2.2 µM |  |
| COc1cc([C@@H]2Oc3cc([C@H]4Oc5cc(O)c(Cl)c(O)c5C(=O)[C@@H]4O)ccc3O[C@H]2CO)ccc1O [compound 28, 6-Chlorosilybin B] | > 500 µM | 114 ± 5 µM | 1.1 ± 0.1 | 3.2 ± 0.2 µM | ≥62.6 ± 3.6 | 130 ± 5.9 µM | - | - | - | 0.71 ± 0.02 CEAC | 1.25 ± 0.01 GAE | 0.050 ± 0.002 Fe2+eq | 272 µM | 0.54 | 147 µM | 52.4 ± 4.5 µM | > 200 µM |
